Drawing on ChEMBL document CHEMBL5143538, “Discovery, Structure Correction, and Biosynthesis of Actinopyrones, Cytotoxic Polyketides from the Deep-Sea Hydrothermal-Vent-Derived Streptomyces sp. SCSIO ZS0520” (J Nat Prod, 2022), this text covers IC50 for five molecules.

Common to all, as to assay type: functional, cell-based
The test system of one assay is HT-29. Briefly: Cytotoxicity against human HT-29 cells assessed as inhibition of cell proliferation measured after 68 hrs by MTT assay. Conditions: HT-29, 68 h. On the technique in general: Formazan colour is commonly taken as a measure of viable cells.
The subject of the next assay is MDA-MB-231. Put plainly: Cytotoxicity against human MDA-MB-231 cells assessed as inhibition of cell proliferation measured after 68 hrs by MTT assay. The settings on record: MDA-MB-231, 68 h.
The test system of the next assay is MDA-MB-435. Put plainly: Cytotoxicity against human MDA-MB-435 cells assessed as inhibition of cell proliferation measured after 68 hrs by MTT assay. The settings on record: MDA-MB-435, 68 h.
Another assay concerns NCI-H460. Briefly: Cytotoxicity against human NCI-H460 cells assessed as inhibition of cell proliferation measured after 68 hrs by MTT assay. Conditions: NCI-H460, 68 h.
A further assay deals with Huh-7. Put plainly: Cytotoxicity against human Huh-7 cells assessed as inhibition of cell proliferation measured after 68 hrs by MTT assay. The settings on record: Huh-7, 68 h.
Another assay has as its system A549. Put plainly: Cytotoxicity against human A549 cells assessed as inhibition of cell proliferation measured after 68 hrs by MTT assay. The settings on record: A549, 68 h.

Bounds are passed on as bounds.

One may read the IC50 as the concentration needed to halve the response being measured. For `C/C=C(\C)[C@@H](O)[C@@H](C)/C=C(C)/C=C/C[C@H](C)/C=C/C(=O)CC`, the IC50 in the assay with HT-29 is more than 50 µM; in the assay on MDA-MB-231, more than 50000 nM; in the assay with MDA-MB-435, more than 50000 nM; with NCI-H460, more than 50000 nM; with Huh-7, more than 50 µM; in the assay with A549, more than 50000 nM.

For `C/C=C(\C)[C@@H](O)[C@@H](C)/C=C(C)/C=C/C[C@H](C)/C=C/c1oc(=O)c(C)c(O)c1C`, the IC50 was more than 50 µM in the assay with HT-29; more than 50000 nM in the assay with MDA-MB-231; more than 50000 nM in the assay with MDA-MB-435; more than 50000 nM in the assay with NCI-H460; more than 50 µM in the assay on Huh-7; more than 50000 nM with A549.

With `C/C=C(\C)[C@@H](O)[C@@H](C)/C=C(C)/C=C/C[C@H](C)/C=C/c1oc(OC)c(C)c(=O)c1C`, the IC50 in the assay with HT-29 was more than 50 µM; in the assay with MDA-MB-231 it was more than 50000 nM; in the assay with MDA-MB-435 it was more than 50000 nM; in the assay on NCI-H460, more than 50000 nM; in the assay on Huh-7, more than 50 µM; with A549, more than 50000 nM.

For `COc1cccc2c1C(=O)c1c(O)c3c(c(O)c1C2=O)C[C@@](O)(C(=O)CO)C[C@@H]3O[C@H]1C[C@H](N)[C@@H](O)[C@H](C)O1` [EPIRUBICIN], the IC50 came to 3.36 µM in the assay on HT-29; 1200 nM with MDA-MB-231; 230 nM in the assay on MDA-MB-435; 60 nM in the assay with NCI-H460; 9.12 µM in the assay on Huh-7; 1320 nM with A549.

For `C/C=C(\C)[C@@H](O[C@@H]1O[C@H](CO)[C@@H](O)[C@H](O)[C@H]1O)[C@@H](C)/C=C(C)/C=C/C[C@H](C)/C=C/c1oc(OC)c(C)c(=O)c1C` (stereo in doubt), the IC50 in the assay with HT-29 came to 2.22 µM; with MDA-MB-231, 1000 nM; with MDA-MB-435 it was 260 nM; with NCI-H460, 660 nM; with Huh-7, 1.18 µM; with A549, 750 nM.
